Test results: ChEMBL document CHEMBL1201862, “PubChem BioAssay data set” (2004)
Blank lines part the entries; values can stand above or below the molecule they belong to. The source made the active and inactive calls.

Columns and labels:
[1] = target: Protein kinase C delta type (Homo sapiens, UniProt Q05655); type: functional
[2] = target: Calcium/calmodulin-dependent protein kinase type II subunit gamma (Homo sapiens, UniProt Q13555); type: functional
[3] = target: Calcium/calmodulin-dependent protein kinase type II subunit delta (Homo sapiens, UniProt Q13557); type: functional
[4] = target: Receptor-type tyrosine-protein kinase FLT3 (Homo sapiens, UniProt P36888); type: functional;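 also: FLT3 was tested as one member of a kinome-wide kinase panel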
[5] = target: Calcium/calmodulin-dependent protein kinase type II subunit beta (Homo sapiens, UniProt Q13554); type: functional
[6] = target: Sphingosine 1-phosphate receptor 2 (Homo sapiens, UniProt O95136); assay: Late-stage fluorescence-based dose-response cell-based counterscreen assay to identify agonists of the Sphingosine 1-Phosphate Receptor 3 (S1P3): Sphingosine 1-Phosphate Receptor 2 (S1P2) agonist assay.; type: functional
[7] = target: T1, Sphingosine 1-phosphate receptor 4 (Homo sapiens, UniProt O95977); assay: Late-stage fluorescence-based dose-response cell-based counterscreen assay to identify agonists of the Sphingosine 1-Phosphate Receptor 3 (S1P3): Sphingosine 1-Phosphate Receptor 4 (S1P4) agonist assay.; type: functional
T1 sequence (O95977 whole entry): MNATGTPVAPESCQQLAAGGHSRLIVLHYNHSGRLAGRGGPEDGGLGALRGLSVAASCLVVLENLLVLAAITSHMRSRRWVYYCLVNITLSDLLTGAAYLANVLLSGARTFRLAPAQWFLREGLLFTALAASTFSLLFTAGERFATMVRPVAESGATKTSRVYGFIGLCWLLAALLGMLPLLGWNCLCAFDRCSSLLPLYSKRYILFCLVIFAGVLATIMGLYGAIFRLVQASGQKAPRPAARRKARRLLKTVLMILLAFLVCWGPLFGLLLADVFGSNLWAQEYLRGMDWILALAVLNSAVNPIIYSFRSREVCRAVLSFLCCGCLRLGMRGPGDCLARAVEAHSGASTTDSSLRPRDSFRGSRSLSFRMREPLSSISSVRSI

[8] = Luminescence Cell-Based Dose Confirmation HTS to Identify Inhibitors of Platelet Dense Granule Release. [Related pubchem assays: 1663 (Primary HTS), 1678 (Summary of Project)]; type: functional
[9] = target: T2, High affinity choline transporter 1 (Homo sapiens, UniProt Q9GZV3); assay: human choline transporter blockers, potency – cell-based, 5-point CRC, membrane potential dye, dose response (AID 504840); type: functional
T2 sequence (Q9GZV3 whole entry): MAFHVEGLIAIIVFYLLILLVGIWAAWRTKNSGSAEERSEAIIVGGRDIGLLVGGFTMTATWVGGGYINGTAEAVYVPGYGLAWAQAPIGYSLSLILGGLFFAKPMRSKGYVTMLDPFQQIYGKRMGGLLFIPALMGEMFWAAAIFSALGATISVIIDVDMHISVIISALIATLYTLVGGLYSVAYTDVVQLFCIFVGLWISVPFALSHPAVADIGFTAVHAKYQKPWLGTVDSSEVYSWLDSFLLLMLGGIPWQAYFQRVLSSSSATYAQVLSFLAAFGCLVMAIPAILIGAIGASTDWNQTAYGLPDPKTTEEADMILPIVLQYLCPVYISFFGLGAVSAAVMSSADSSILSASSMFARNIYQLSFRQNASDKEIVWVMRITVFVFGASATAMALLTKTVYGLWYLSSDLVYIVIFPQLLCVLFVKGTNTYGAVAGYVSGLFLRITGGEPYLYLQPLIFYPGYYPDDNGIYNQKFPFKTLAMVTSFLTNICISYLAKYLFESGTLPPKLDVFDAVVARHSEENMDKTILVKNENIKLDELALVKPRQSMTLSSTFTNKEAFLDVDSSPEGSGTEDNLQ

[10] = target: T2, High affinity choline transporter 1; assay: human choline transporter blockers, potency – cell-based, 10-point CRC, membrane potential dye, dose response (AID 588401); type: functional;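 also: membrane potential dye fluorescence of choline-evoked depolarization via CHT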
[11] = target: Serine/threonine-protein kinase pim-1 (Homo sapiens, UniProt P11309); type: functional
[12] = target: Cell division cycle 7-related protein kinase (Homo sapiens, UniProt O00311); type: functional;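 also: value obtained from a kinome-wide kinase panel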
[13] = target: Homeodomain-interacting protein kinase 2 (Homo sapiens, UniProt Q9H2X6); type: functional;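 also: measured within a kinome-wide kinase profiling panel, HIPK2 being one panel member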
[14] = target: Interleukin-1 receptor-associated kinase 4 (Homo sapiens, UniProt Q9NWZ3); type: functional
[15] = target: Cyclin-dependent kinase 7 (Homo sapiens, UniProt P50613); type: functional;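 also: value comes from a kinome-wide kinase profiling panel in which CDK7 is one member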
[16] = target: Glycogen synthase kinase-3 beta (Homo sapiens, UniProt P49841); type: functional;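 also: value comes from a broad kinome profiling panel, with GSK3B as the panel member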
[17] = target: Cyclin-dependent kinase 9 (Homo sapiens, UniProt P50750); type: functional;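 also: value from the CDK9 entry of a kinome-spanning kinase panel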
[18] = target: cAMP-dependent protein kinase catalytic subunit alpha (Homo sapiens, UniProt P17612); type: functional
Melanocortin receptor 4 = Melanocortin receptor 4 (Homo sapiens, UniProt P32245); assay: inhibitors of MC4R cAMP signaling – cell-based, TR-FRET, biased antagonists, dose response (AID 602298); type: functional;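 also: antagonist potency against agonist-stimulated cAMP production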
[19] = cAMP pathway inhibition in counterscreen cell line – TR-FRET cAMP detection, counter-screen for MC4R biased antagonist project, dose response (AID 602305); type: functional, cell-based;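 also: U2OS cells stimulated with forskolin near its EC80 as the cAMP inducer; potency is for inhibition of forskolin-stimulated cAMP signaling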
Aurora kinase A = Aurora kinase A (Homo sapiens, UniProt O14965); type: functional;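 also: value from the Navigating the Kinome kinase panel profiling, panel entry STK6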
[20] = target: Vascular endothelial growth factor receptor 2 (Homo sapiens, UniProt P35968); type: functional
Aurora kinase B = Aurora kinase B (Homo sapiens, UniProt Q96GD4); type: functional
[21] = target: Cyclin-dependent kinase 19 (Homo sapiens, UniProt Q9BWU1); assay: Navigating the Kinome. Panel member name: CDC2L6; type: functional
[22] = target: Dual specificity protein kinase CLK2 (Homo sapiens, UniProt P49760); type: functional
[23] = target: Serine/threonine-protein kinase 17A (Homo sapiens, UniProt Q9UEE5); type: functional
[24] = target: Mitogen-activated protein kinase kinase kinase kinase 2 (Homo sapiens, UniProt Q12851); type: functional;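 also: measured as one member of a kinome-wide kinase panel, with MAP4K2 as the panel entry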
Misshapen-like kinase 1 = Misshapen-like kinase 1 (Homo sapiens, UniProt Q8N4C8); type: functional;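 also: kinome panel screen with MINK as the panel member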

Mitogen-activated protein kinase kinase kinase kinase 2, sequence (Q12851 whole entry): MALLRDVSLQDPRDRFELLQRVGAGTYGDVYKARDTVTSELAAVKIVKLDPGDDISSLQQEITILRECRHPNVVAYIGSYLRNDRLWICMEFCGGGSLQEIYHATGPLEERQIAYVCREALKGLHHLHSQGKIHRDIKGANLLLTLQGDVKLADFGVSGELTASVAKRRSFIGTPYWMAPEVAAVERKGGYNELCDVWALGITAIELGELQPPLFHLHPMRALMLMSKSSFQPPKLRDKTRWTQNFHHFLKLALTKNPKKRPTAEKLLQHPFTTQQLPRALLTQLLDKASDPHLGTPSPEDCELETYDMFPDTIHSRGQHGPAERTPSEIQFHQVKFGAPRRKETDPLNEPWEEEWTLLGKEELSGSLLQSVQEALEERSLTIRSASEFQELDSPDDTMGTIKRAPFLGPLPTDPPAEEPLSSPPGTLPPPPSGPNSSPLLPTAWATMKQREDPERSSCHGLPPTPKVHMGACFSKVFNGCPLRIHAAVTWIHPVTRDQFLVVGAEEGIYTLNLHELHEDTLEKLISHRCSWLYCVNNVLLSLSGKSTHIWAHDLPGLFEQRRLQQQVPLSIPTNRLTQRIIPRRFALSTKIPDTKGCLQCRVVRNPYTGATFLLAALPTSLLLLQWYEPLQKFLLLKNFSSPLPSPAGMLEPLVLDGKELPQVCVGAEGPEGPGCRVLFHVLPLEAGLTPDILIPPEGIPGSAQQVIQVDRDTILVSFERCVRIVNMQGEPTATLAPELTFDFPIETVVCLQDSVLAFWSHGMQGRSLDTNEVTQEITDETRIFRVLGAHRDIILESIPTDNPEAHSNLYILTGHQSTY
Cyclin-dependent kinase 9, sequence (P50750 whole entry): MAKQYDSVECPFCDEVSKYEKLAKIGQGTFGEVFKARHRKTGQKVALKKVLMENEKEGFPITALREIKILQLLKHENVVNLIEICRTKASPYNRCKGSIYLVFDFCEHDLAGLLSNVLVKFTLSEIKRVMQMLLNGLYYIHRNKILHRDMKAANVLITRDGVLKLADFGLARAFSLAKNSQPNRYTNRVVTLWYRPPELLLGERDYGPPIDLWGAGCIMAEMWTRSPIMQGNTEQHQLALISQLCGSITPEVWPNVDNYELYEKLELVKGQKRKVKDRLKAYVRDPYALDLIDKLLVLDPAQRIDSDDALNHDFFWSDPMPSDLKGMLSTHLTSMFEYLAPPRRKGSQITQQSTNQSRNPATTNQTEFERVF
Dual specificity protein kinase CLK2, sequence (P49760 whole entry): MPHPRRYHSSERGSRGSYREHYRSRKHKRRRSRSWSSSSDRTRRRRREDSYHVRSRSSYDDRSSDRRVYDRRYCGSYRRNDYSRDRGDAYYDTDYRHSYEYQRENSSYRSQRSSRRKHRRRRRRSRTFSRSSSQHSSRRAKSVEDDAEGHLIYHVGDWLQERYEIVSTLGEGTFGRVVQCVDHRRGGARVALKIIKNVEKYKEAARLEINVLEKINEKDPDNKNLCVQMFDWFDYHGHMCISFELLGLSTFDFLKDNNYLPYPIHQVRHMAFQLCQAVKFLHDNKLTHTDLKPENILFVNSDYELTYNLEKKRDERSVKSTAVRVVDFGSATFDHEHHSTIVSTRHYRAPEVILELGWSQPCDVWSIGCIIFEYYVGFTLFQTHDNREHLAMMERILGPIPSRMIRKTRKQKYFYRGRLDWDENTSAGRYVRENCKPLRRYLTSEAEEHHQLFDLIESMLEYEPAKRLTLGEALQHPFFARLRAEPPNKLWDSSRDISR
Serine/threonine-protein kinase 17A, sequence (Q9UEE5 whole entry): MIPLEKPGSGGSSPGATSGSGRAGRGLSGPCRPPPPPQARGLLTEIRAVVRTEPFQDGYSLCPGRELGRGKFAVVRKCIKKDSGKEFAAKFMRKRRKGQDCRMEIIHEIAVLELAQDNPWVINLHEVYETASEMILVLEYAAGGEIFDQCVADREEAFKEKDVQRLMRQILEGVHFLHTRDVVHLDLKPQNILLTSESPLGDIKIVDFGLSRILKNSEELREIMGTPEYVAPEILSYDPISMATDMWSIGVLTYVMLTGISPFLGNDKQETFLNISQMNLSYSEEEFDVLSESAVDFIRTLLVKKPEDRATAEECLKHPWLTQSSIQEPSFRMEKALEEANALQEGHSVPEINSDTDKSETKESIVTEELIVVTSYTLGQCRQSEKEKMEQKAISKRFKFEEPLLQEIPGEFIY
Homeodomain-interacting protein kinase 2, sequence (Q9H2X6 whole entry): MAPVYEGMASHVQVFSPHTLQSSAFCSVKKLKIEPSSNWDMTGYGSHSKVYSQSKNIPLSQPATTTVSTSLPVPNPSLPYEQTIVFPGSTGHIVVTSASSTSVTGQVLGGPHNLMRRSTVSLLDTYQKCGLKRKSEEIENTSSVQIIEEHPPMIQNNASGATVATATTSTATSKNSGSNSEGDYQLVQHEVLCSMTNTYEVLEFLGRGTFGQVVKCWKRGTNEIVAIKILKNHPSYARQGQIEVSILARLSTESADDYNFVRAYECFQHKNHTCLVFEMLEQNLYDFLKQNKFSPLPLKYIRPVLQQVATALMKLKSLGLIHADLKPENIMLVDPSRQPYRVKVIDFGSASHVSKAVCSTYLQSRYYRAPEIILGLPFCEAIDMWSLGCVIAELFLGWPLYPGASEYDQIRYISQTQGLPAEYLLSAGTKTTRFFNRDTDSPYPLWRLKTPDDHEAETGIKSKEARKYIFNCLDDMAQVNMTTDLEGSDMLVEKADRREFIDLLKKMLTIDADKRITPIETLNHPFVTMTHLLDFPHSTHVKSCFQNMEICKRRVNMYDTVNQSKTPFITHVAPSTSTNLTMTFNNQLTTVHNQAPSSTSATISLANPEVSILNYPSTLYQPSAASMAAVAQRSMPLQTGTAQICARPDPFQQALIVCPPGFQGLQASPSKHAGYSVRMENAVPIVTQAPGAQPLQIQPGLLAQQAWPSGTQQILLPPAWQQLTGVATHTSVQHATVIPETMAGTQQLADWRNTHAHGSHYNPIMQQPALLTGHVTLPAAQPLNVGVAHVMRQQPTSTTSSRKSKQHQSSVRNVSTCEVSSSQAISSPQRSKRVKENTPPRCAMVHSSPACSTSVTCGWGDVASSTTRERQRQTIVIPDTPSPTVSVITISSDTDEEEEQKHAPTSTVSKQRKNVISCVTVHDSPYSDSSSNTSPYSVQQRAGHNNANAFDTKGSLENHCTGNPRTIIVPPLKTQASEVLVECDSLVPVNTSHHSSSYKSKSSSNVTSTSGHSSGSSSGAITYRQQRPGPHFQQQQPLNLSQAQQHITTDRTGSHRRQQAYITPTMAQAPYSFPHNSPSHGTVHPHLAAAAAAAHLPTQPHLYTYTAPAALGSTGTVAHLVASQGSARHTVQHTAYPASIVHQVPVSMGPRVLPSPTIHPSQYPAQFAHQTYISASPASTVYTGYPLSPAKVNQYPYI
Calcium/calmodulin-dependent protein kinase type II subunit beta, sequence (Q13554 whole entry): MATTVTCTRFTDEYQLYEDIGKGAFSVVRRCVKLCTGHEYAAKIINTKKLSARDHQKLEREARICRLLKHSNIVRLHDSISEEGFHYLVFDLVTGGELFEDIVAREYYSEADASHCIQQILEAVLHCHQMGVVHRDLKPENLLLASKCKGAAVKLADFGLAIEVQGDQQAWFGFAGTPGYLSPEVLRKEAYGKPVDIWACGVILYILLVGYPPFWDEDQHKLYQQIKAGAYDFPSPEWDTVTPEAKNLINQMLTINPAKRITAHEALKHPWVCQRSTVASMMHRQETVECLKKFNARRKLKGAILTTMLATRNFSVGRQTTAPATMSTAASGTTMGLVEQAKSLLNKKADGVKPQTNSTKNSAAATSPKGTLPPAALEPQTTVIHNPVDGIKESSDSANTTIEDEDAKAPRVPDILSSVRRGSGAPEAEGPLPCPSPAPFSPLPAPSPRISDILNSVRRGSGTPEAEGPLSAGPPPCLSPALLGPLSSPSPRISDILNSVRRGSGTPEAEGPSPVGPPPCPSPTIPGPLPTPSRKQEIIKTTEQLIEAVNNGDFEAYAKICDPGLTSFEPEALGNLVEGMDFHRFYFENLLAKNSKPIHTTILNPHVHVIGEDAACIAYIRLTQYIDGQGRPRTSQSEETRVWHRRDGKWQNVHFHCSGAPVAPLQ
Aurora kinase B, sequence (Q96GD4 whole entry): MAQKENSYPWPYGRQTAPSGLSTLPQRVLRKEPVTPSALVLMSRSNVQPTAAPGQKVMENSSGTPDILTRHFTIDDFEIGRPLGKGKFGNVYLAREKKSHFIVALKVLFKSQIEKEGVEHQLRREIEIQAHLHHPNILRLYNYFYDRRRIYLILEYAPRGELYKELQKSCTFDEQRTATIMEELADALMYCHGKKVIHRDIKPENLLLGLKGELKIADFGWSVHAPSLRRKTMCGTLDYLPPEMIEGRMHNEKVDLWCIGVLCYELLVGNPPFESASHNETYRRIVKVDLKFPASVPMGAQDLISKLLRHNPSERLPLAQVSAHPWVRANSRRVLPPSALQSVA
Interleukin-1 receptor-associated kinase 4, sequence (Q9NWZ3 whole entry): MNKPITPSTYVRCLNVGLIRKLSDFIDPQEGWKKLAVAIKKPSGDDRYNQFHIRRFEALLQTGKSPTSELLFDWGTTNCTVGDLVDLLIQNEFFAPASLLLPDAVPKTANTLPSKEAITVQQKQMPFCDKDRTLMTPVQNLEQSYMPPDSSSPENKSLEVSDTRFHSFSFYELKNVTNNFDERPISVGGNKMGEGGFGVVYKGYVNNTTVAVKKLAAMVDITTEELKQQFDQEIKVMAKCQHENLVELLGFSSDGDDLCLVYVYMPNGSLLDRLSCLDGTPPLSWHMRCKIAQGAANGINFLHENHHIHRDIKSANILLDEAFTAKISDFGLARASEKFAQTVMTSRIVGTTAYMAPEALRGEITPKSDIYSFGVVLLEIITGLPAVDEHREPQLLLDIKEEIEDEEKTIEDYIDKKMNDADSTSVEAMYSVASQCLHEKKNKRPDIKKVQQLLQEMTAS

SMILES: O=C(c1cc(C2CC2)on1)N(C1CCCCC1)C1CCOCC1
- EC50 [6]: > 50 µM (inactive)
- EC50 [7]: > 50 µM (inactive)

SMILES: Nc1ncnc2c1ncn2[C@@H]1O[C@H](CO)[C@@H](O)[C@H]1O [ADENOSINE]
- EC50 [8]: 759 nM (active)
- IC50 [9]: 571 nM (active)
- IC50 [10]: 200 nM (active)

SMILES: CCN(CC)C(=O)C(C)N(C#N)c1nc(Cl)nc(N(C)C)n1 (stereo not drawn)
- IC50 (Melanocortin receptor 4): > 64.6 µM (inactive)
- IC50 [19]: > 64.6 µM (inactive)

SMILES: Cc1n[nH]c2c1C(c1ccccc1F)C(C#N)=C(N)O2 (stereo not drawn)
- Ki [22]: 7.94 µM (active)
- Ki [23]: 2.51 µM (active)
- Ki [24]: 5.01 µM (active)
- Ki (Misshapen-like kinase 1): 5.01 µM (active)

Now from value to molecule:

- Ki [1]: 7.94 µM (active)
- Ki [2]: 1.58 µM (active)
- Ki [3]: 2 µM (active)
- Ki [4]: 1.26 µM (active)
- Ki [5]: 2 µM (active)
SMILES: CCNc1nc(C)c(C=CC(C)(C)c2ccc(C(F)(F)F)cc2)c(NCC)n1

- Ki [11]: 398 nM (active)
- Ki [12]: 0.631 nM (active)
- Ki [13]: 7.94 nM (active)
- Ki [14]: 1.58 µM (active)
- Ki [15]: 79.4 nM (active)
- Ki [16]: 31.6 nM (active)
- Ki [17]: 158 nM (active)
- Ki [18]: 31.6 nM (active)
SMILES: CC(C)(CO)CCCNc1cc(-c2c[nH]c3ncccc23)cc(Cl)n1

- Ki (Aurora kinase A): 200 nM (active)
- Ki [20]: 12.6 nM (active)
- Ki (Aurora kinase B): 5.01 nM (active)
- Ki [21]: 20 nM (active)
SMILES: O=C(Nc1cccc(-c2nn3ccccc3c2-c2ccnc(Nc3ccc4c(c3)CNCC4)n2)c1)c1c(F)cccc1F
